Experimental data from US12180146B2, “Antihypertensive polyol compound and derivative thereof” (TAO PHARMACEUTICAL (SUZHOU) CO., LTD, priority 2020, dated 2024).

Test system: spontaneously hypertensive rats (SHR)
Experiment: Antihypertensive activity test: blood pressure and heart rate of spontaneously hypertensive rats (SHR)
Assay type: in vivo, rat
Conditions: 200 mg/kg; for SHR heart rate, time after administration 0 h / SHR heart rate, time after administration 1 h / SHR heart rate, time after administration 2 h / SHR heart rate, time after administration 3 h / SHR heart rate, time after administration 4 h / SHR heart rate, time after administration 5 h / SHR heart rate, time after administration 6 h: N = 8; for SHR blood pressure (SBP), time after administration 1 h / SHR blood pressure (SBP), time after administration 2 h / SHR blood pressure (SBP), time after administration 3 h / SHR blood pressure (SBP), time after administration 4 h / SHR blood pressure (SBP), time after administration 5 h / SHR blood pressure (SBP), time after administration 6 h / Blood pressure (SBP, mmHg) After administration / Heart rate (beat/min) After administration / Blood pressure (SBP, mmHg) Baseline / Heart rate (beat/min) Baseline: n = 8; for Blood pressure (SBP, mmHg) After administration / Heart rate (beat/min) After administration: after administration (6 h M ± SD); for Heart rate Difference (beat/min): after administration minus baseline (6 h); for Blood pressure Difference mmHg: baseline minus after administration (6 h); for Blood pressure (SBP, mmHg) Baseline / Heart rate (beat/min) Baseline: before administration, M ± SD
Protocol: Tested Drugs: Compounds of the Invention. The dosage of all compound was uniformly set to 200 mg/kg.
In the test, changes in the blood pressure before and after the administration were detected, and compared with the basic value, a reduction of SBP ≥20 mmHg after administration was judged as effective antihypertensive effects; and at the same time, changes in the heart rate before and after the administration were detected.
Heart rate was expressed as mean±standard deviation (x±s). The changes of heart rate before and after the administration were compared by using Two-sample equal variance paired t test, and P<0.05 was regarded as the standard of statistically significant difference.

`CCc1ccc(C(O)CO)cc1` (stereo not drawn) [Compound 4] was tested, and the “SHR heart rate, time after administration 0 h” value was 345 ± 42.2 beat/min, the “Heart rate Difference before and after administration, 1 h” value was 2 beat/min and the “SBP Difference before and after administration, 1 h” value was 3 mmHg. The “SHR heart rate, time after administration 1 h” value was 347 ± 42.6 beat/min, the “SHR blood pressure (SBP), time after administration 1 h” value was 182 ± 11.6 mmHg and the “Heart rate Difference before and after administration, 2 h” value was 4 beat/min. The “SBP Difference before and after administration, 2 h” value was 7 mmHg, the “SHR heart rate, time after administration 2 h” value was 349 ± 49.7 beat/min and the “SHR blood pressure (SBP), time after administration 2 h” value was 178 ± 10.8 mmHg. For the same compound, the “Heart rate Difference before and after administration, 3 h” value was 4 beat/min, the “SBP Difference before and after administration, 3 h” value was 8 mmHg and the “SHR heart rate, time after administration 3 h” value was 349 ± 48.3 beat/min. For the same compound, the “SHR blood pressure (SBP), time after administration 3 h” value was 177 ± 10.9 mmHg, the “Heart rate Difference before and after administration, 4 h” value was 0 beat/min and the “SBP Difference before and after administration, 4 h” value was 5 mmHg. For the same compound, the “SHR heart rate, time after administration 4 h” value was 345 ± 45.1 beat/min, the “SHR blood pressure (SBP), time after administration 4 h” value was 180 ± 15.80 mmHg and the “Heart rate Difference before and after administration, 5 h” value was −6 beat/min. The “SBP Difference before and after administration, 5 h” value was 1 mmHg, the “SHR heart rate, time after administration 5 h” value was 338 ± 39.7 beat/min and the “SHR blood pressure (SBP), time after administration 5 h” value was 184 ± 16.0 mmHg. The “Heart rate Difference before and after administration, 6 h” value was −4 beat/min, the “SBP Difference before and after administration, 6 h” value was −1 mmHg and the “SHR heart rate, time after administration 6 h” value was 341 ± 46.9 beat/min. For the same compound, the “SHR blood pressure (SBP), time after administration 6 h” value was 186 ± 17.7 mmHg, the “Blood pressure (SBP, mmHg) After administration” value was 181 ± 13.2 mmHg and the “Heart rate (beat/min) After administration” value was 346 ± 43.4 beat/min. For the same compound, the “Heart rate Difference (beat/min)” value was 1 beat/min, the “Blood pressure Difference mmHg” value was 3 mmHg and the “Blood pressure (SBP, mmHg) Baseline” value was 184 ± 14.7 mmHg. For the same compound, the “Heart rate (beat/min) Baseline” value was 345 ± 42.2 beat/min.
`OCC(O)c1cccc(Br)c1` (stereo not drawn) [Compound 6] was tested, and the “SBP Difference before and after administration, 1 h” value was 5 mmHg, the “SHR blood pressure (SBP), time after administration 1 h” value was 184 ± 10.9 mmHg and the “SBP Difference before and after administration, 2 h” value was 9 mmHg. The “SHR blood pressure (SBP), time after administration 2 h” value was 180 ± 12.4 mmHg, the “SBP Difference before and after administration, 3 h” value was 9 mmHg and the “SHR blood pressure (SBP), time after administration 3 h” value was 180 ± 7.80 mmHg. For the same compound, the “SBP Difference before and after administration, 4 h” value was 6 mmHg, the “SHR blood pressure (SBP), time after administration 4 h” value was 183 ± 6.56 mmHg and the “SBP Difference before and after administration, 5 h” value was 7 mmHg. For the same compound, the “SHR blood pressure (SBP), time after administration 5 h” value was 182 ± 8.29 mmHg, the “SBP Difference before and after administration, 6 h” value was 1 mmHg and the “SHR blood pressure (SBP), time after administration 6 h” value was 188 ± 13.2 mmHg.
For `CC(C)c1cccc(C(O)CO)c1` (stereo not drawn) [Compound 9], the “SBP Difference before and after administration, 1 h” value was 2 mmHg, the “SHR blood pressure (SBP), time after administration 1 h” value was 192 ± 11.6 mmHg and the “SBP Difference before and after administration, 2 h” value was 6 mmHg. For the same compound, the “SHR blood pressure (SBP), time after administration 2 h” value was 188 ± 12.1 mmHg, the “SBP Difference before and after administration, 3 h” value was 17 mmHg and the “SHR blood pressure (SBP), time after administration 3 h” value was 177 ± 12.3 mmHg. The “SBP Difference before and after administration, 4 h” value was 14 mmHg, the “SHR blood pressure (SBP), time after administration 4 h” value was 180 ± 12.85 mmHg and the “SBP Difference before and after administration, 5 h” value was 10 mmHg. For the same compound, the “SHR blood pressure (SBP), time after administration 5 h” value was 184 ± 16.0 mmHg, the “SBP Difference before and after administration, 6 h” value was 8 mmHg and the “SHR blood pressure (SBP), time after administration 6 h” value was 186 ± 17.8 mmHg.
With `CC(=O)c1ccc(C(O)CO)cc1` (stereo not drawn) [Compound 10] the “SBP Difference before and after administration, 1 h” value was 6 mmHg, the “SHR blood pressure (SBP), time after administration 1 h” value was 186 ± 9.54 mmHg and the “SBP Difference before and after administration, 2 h” value was 10 mmHg. The “SHR blood pressure (SBP), time after administration 2 h” value was 182 ± 7.36 mmHg, the “SBP Difference before and after administration, 3 h” value was 13 mmHg and the “SHR blood pressure (SBP), time after administration 3 h” value was 179 ± 4.07 mmHg. For the same compound, the “SBP Difference before and after administration, 4 h” value was 9 mmHg, the “SHR blood pressure (SBP), time after administration 4 h” value was 183 ± 7.65 mmHg and the “SBP Difference before and after administration, 5 h” value was 7 mmHg. For the same compound, the “SHR blood pressure (SBP), time after administration 5 h” value was 185 ± 5.64 mmHg, the “SBP Difference before and after administration, 6 h” value was 2 mmHg and the “SHR blood pressure (SBP), time after administration 6 h” value was 190 ± 6.54 mmHg.
With `Cc1ccc(C(O)CO)cc1` (stereo not drawn) [Compound 12] the “SHR heart rate, time after administration 0 h” value was 333 ± 44.0 beat/min, the “Heart rate Difference before and after administration, 1 h” value was −5 beat/min and the “SBP Difference before and after administration, 1 h” value was 3 mmHg. For the same compound, the “SHR heart rate, time after administration 1 h” value was 328 ± 47.6 beat/min, the “SHR blood pressure (SBP), time after administration 1 h” value was 184 ± 10.6 mmHg and the “Heart rate Difference before and after administration, 2 h” value was 8 beat/min. For the same compound, the “SBP Difference before and after administration, 2 h” value was 5 mmHg, the “SHR heart rate, time after administration 2 h” value was 342 ± 46.9 beat/min and the “SHR blood pressure (SBP), time after administration 2 h” value was 182 ± 10.4 mmHg. For the same compound, the “Heart rate Difference before and after administration, 3 h” value was 15 beat/min, the “SBP Difference before and after administration, 3 h” value was 4 mmHg and the “SHR heart rate, time after administration 3 h” value was 348 ± 53.2 beat/min. For the same compound, the “SHR blood pressure (SBP), time after administration 3 h” value was 183 ± 9.90 mmHg, the “Heart rate Difference before and after administration, 4 h” value was 3 beat/min and the “SBP Difference before and after administration, 4 h” value was 9 mmHg. For the same compound, the “SHR heart rate, time after administration 4 h” value was 336 ± 54.5 beat/min, the “SHR blood pressure (SBP), time after administration 4 h” value was 178 ± 6.61 mmHg and the “Heart rate Difference before and after administration, 5 h” value was −3 beat/min. The “SBP Difference before and after administration, 5 h” value was 5 mmHg, the “SHR heart rate, time after administration 5 h” value was 331 ± 51.0 beat/min and the “SHR blood pressure (SBP), time after administration 5 h” value was 182 ± 7.25 mmHg. For the same compound, the “Heart rate Difference before and after administration, 6 h” value was 3 beat/min, the “SBP Difference before and after administration, 6 h” value was 3 mmHg and the “SHR heart rate, time after administration 6 h” value was 336 ± 52.7 beat/min. For the same compound, the “SHR blood pressure (SBP), time after administration 6 h” value was 184 ± 12.1 mmHg, the “Blood pressure (SBP, mmHg) After administration” value was 181 ± 8.80 mmHg and the “Heart rate (beat/min) After administration” value was 336 ± 49.5 beat/min. The “Heart rate Difference (beat/min)” value was 3 beat/min, the “Blood pressure Difference mmHg” value was 6 mmHg and the “Blood pressure (SBP, mmHg) Baseline” value was 187 ± 11.9 mmHg. The “Heart rate (beat/min) Baseline” value was 333 ± 44.0 beat/min.
For `CCC(O)c1cccc(CO)c1` (stereo not drawn) [Compound 13], the “SHR heart rate, time after administration 0 h” value was 319 ± 21.0 beat/min, the “Heart rate Difference before and after administration, 1 h” value was 6 beat/min and the “SBP Difference before and after administration, 1 h” value was 3 mmHg. The “SHR heart rate, time after administration 1 h” value was 325 ± 24.2 beat/min, the “SHR blood pressure (SBP), time after administration 1 h” value was 186 ± 12.4 mmHg and the “Heart rate Difference before and after administration, 2 h” value was 14 beat/min. The “SBP Difference before and after administration, 2 h” value was 12 mmHg, the “SHR heart rate, time after administration 2 h” value was 332 ± 38.9 beat/min and the “SHR blood pressure (SBP), time after administration 2 h” value was 178 ± 12.0 mmHg. For the same compound, the “Heart rate Difference before and after administration, 3 h” value was 17 beat/min, the “SBP Difference before and after administration, 3 h” value was 19 mmHg and the “SHR heart rate, time after administration 3 h” value was 335 ± 43.8 beat/min. For the same compound, the “SHR blood pressure (SBP), time after administration 3 h” value was 171 ± 13.1 mmHg, the “Heart rate Difference before and after administration, 4 h” value was 15 beat/min and the “SBP Difference before and after administration, 4 h” value was 14 mmHg. For the same compound, the “SHR heart rate, time after administration 4 h” value was 334 ± 45.8 beat/min, the “SHR blood pressure (SBP), time after administration 4 h” value was 176 ± 11.4 mmHg and the “Heart rate Difference before and after administration, 5 h” value was 10 beat/min. For the same compound, the “SBP Difference before and after administration, 5 h” value was 10 mmHg, the “SHR heart rate, time after administration 5 h” value was 329 ± 39.5 beat/min and the “SHR blood pressure (SBP), time after administration 5 h” value was 180 ± 11.9 mmHg. The “Heart rate Difference before and after administration, 6 h” value was 2 beat/min, the “SBP Difference before and after administration, 6 h” value was 14 mmHg and the “SHR heart rate, time after administration 6 h” value was 320 ± 43.1 beat/min. For the same compound, the “SHR blood pressure (SBP), time after administration 6 h” value was 176 ± 10.1 mmHg, the “Blood pressure (SBP, mmHg) After administration” value was 178 ± 11.2 mmHg and the “Heart rate (beat/min) After administration” value was 329 ± 27.7 beat/min. The “Heart rate Difference (beat/min)” value was 10 beat/min, the “Blood pressure Difference mmHg” value was 12 mmHg and the “Blood pressure (SBP, mmHg) Baseline” value was 190 ± 13.2 mmHg. The “Heart rate (beat/min) Baseline” value was 319 ± 21.0 beat/min.
